Results published in patent US8071778B2, “Substituted heterocyclic ethers and their use in CNS disorders” (Bristol-Myers Squibb Company, priority 2006, dated 2011).
Read-outs that look alike come from different tables or passages of the source.

How the values were obtained:
hSERT = molecular target: T1, hSERT (Homo sapiens, UniProt P31645); test: SERT radioligand binding assay
T1 construct: expressed in transfected cells; host or cells: HEK-293 cells (crude membranes)
Procedure: (§1) NK-1 Binding assay. Crude membrane suspensions were prepared for the NK1 and SERT radioligand binding assays from U373 cells or recombinant HEK-293 cells expressing hSERT, respectively. […] The medium is removed from the flasks and the cells rinsed with HBSS without Ca and without Mg. The cells are then incubated for 5-10 minutes in 10 mM Tris-Cl, pH 7.5, 5 mM EDTA before the cells are lifted with a combination of pipetting and scraping, as needed. To prepare membranes, the cell suspension is collected into centrifuge bottles and homogenized for 30 seconds with a Polytron homogenizer. The suspension is centrifuged for 30 min 32,000×g, 4° C., then the supernatant is decanted and the pellet resuspended and homogenized in 50 mM Tris-Cl, pH 7.5, 1 mM EDTA for 10 seconds. The suspension is then centrifuged again for 30 min 32,000×g, 4° C. The supernatant is decanted and the pellet resuspended in 50 mM Tris-Cl, pH 7.5, 1 mM EDTA and briefly homogenized. A Bradford assay (Bio-rad) is performed and the membrane preparation diluted to 2 mg/ml with 50 mM Tris-Cl, pH 7.5, 1 mM EDTA. Aliquots are prepared, and then frozen and stored at −80° C.
(§2) SERT radioligand binding assay. Compounds are dissolved in 100% DMSO at a concentration 100× the desired highest assay concentration, serially diluted 1:3 in 100% DMSO, and 0.4 ul/well of each solution is dispensed to a Nunc polypropylene, round bottom, 384 well plate. […] The contents of the assay plate are then transferred to a Millipore MultiscreenHTS GF/B filter plate which has been pretreated with 0.5% PEI for at least one hour. The plate is vacuum filtered and washed with 7 washes of 100 ul/well of 50 mM Tris-Cl, pH 7.5, 120 mM NaCl, 5 mM KCl chilled to 4° C. The filtration and washing is completed in less than 90 s. The plates are air-dried overnight, 12 ul/well of MicroScint scintillation fluid added, and the plates counted in a Trilux.
(§3) Data analysis. […] Each plate is run in triplicate, and the concentration response curve thus generated is fit using the four-parameter dose response equation, Y=Bottom+(Top-Bottom)/(1+10^((Log IC50−X)*HillSlope)) in order to determine the IC50 value for each compound. The radioligand concentration chosen for each assay corresponds to the Kd concentration determined through saturation binding analysis for each assay.

NK-1 = molecular target: T2, NK-1 (Homo sapiens, UniProt P25103); test: NK1 radioligand binding assay; details: U373 membrane preparation, [125I]Substance P
T2 construct: endogenous in cells; host or cells: U373 cells (crude membranes)
Procedure: as §1
as §2, with “NK1” for “SERT”, “0.6” for “0.4”, “20” for “50”, “0.5% (w/v) BSA” for “120 mM NaCl, 5 mM KCl”
as §3

[1] = HEK-hSERT membrane preparation, [125I]RTI-55, read-out: SERT IC50

T1 sequence (P31645 whole entry): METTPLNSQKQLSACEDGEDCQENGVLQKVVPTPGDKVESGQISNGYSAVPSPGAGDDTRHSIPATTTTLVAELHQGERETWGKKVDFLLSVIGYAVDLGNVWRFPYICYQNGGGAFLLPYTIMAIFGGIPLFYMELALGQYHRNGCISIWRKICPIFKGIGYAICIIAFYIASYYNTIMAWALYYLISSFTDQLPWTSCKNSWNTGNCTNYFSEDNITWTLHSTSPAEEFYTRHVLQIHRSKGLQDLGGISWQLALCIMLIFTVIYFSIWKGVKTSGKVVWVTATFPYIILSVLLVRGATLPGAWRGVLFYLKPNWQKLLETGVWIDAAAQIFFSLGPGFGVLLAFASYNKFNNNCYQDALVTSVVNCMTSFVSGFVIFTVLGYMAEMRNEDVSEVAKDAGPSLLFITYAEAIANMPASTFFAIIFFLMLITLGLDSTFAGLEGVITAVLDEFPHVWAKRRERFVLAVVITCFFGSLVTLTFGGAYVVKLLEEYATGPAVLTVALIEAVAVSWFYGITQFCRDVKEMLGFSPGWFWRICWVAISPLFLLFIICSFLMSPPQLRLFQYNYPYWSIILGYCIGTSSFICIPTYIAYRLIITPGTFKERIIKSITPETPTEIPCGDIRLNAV
T2 sequence (P25103 whole entry): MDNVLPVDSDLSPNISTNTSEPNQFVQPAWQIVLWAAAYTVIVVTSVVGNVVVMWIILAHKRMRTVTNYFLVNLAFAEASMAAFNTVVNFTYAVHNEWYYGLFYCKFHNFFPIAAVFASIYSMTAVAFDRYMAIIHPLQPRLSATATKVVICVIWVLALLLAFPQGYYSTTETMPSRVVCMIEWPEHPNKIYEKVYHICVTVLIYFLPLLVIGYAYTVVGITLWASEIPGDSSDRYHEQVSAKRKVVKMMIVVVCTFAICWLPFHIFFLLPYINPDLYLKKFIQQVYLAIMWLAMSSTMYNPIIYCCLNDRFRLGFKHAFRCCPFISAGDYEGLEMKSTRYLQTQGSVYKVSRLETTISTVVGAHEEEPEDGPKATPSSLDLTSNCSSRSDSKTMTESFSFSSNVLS

Compound | IC50 (hSERT) | IC50 (NK-1) | IC50 (hSERT; [1])
Cc1cc(-c2cc(C(F)(F)F)cc(COCC3(c4ccc(F)cc4)CCN(C)CC3)n2)ccc1C#N [Example 61] | 0.01 to 100 nM | 0.01 to 100 nM | 
CN1CCC(COCc2cc(C(F)(F)F)cc(-c3ccc(F)cc3F)n2)(c2ccc(F)cc2)CC1 [Example 62] | 0.01 to 100 nM | 0.01 to 100 nM | 
COC(=O)c1ccc(-c2cc(C(F)(F)F)cc(COCC3(c4ccc(F)cc4)CCN(C)CC3)n2)c(F)c1 [Example 63] | 0.01 to 100 nM | 0.01 to 100 nM | 
CN1CCC(COCc2cc(C(F)(F)F)cc(-c3ccc(C#N)cc3)n2)(c2ccc(F)cc2F)CC1 [Example 64] | 100 to 300 nM | 0.01 to 100 nM | 
CN1CCC(COCc2cc(C(F)(F)F)cc(-c3cccn3C(=O)OC(C)(C)C)n2)(c2ccc(F)cc2)CC1 [Example 65] | 100 to 300 nM | 0.01 to 100 nM | 
CN1CCC(COCc2cc(C(F)(F)F)cc(-c3ccc[nH]3)n2)(c2ccc(F)cc2)CC1 [Example 66] | 0.01 to 100 nM | 0.01 to 100 nM | 
CN1CCC(COCc2cc(-c3ccc(C#N)cc3)nc(-c3ccc(C#N)cc3)c2)(c2ccccc2)CC1 [Example 67] | 100 to 300 nM | > 300 nM | 
CCN(c1cc(C(F)(F)F)cc(COCC2(c3ccc(F)cc3)CCN(C)CC2)n1)C(C)C [Example 73] | 0.01 to 100 nM | 0.01 to 100 nM | 
COc1ccc(-c2cc(C(F)(F)F)cc(COCC3(c4ccc(F)cc4)CCN(C)CC3)n2)cc1 [Example 74] | 0.01 to 100 nM | 0.01 to 100 nM | 
COc1ccc(-c2cc(C(F)(F)F)cc(COCC3(c4ccc(F)cc4)CCN(C)CC3)n2)cc1F [Example 75] | 0.01 to 100 nM | 0.01 to 100 nM | 
COc1cc(COCC2(c3ccc(F)cc3)CCN(C)CC2)cc(-c2ccc(C#N)cc2)n1 [Example 76] | 0.01 to 100 nM | 0.01 to 100 nM | 
COc1cc(C(C)OCC2(c3ccc(F)cc3)CCN(C)CC2)cc(-c2ccc(C#N)cc2)n1 (centres unmarked) [Example 79] | 0.01 to 100 nM | 0.01 to 100 nM | 
COc1cc(COCC2(c3ccc(F)cc3)CCN(C)CC2)cc(C(F)(F)F)n1 [Example 80] | 0.01 to 100 nM | 0.01 to 100 nM | 
CN1CCC(COCc2cc(C(F)(F)F)cc(-c3ccc(C#N)cc3)n2)(c2ccc(F)c(F)c2)CC1 [Example 81] | 0.01 to 100 nM | 0.01 to 100 nM | 
CN1CCC(COCc2cc(C(F)(F)F)cc(-c3ccc(C#N)cc3)n2)(c2cccc(Cl)c2)CC1 [Example 82] | 0.01 to 100 nM | 0.01 to 100 nM | 
CN1CCC(COCc2cc(C(F)(F)F)cc(-c3ccc(C#N)cc3)n2)(c2cccc(C(F)(F)F)c2)CC1 [Example 83] | 100 to 300 nM | 0.01 to 100 nM | 

Compound | IC50 (hSERT) | IC50 (NK-1) | IC50 (hSERT; [1])
CN1CCC(COCc2cc(C(F)(F)F)cc(-c3ccc(C#N)cc3)n2)(c2ccc(C#N)cc2)CC1 [Example 84] | 0.01 to 100 nM | 0.01 to 100 nM | 
CN1CCC(COCc2cc(C(F)(F)F)cc(-c3ccc(C#N)cc3)n2)(c2cccc(F)c2)CC1 [Example 85] | 0.01 to 100 nM | 0.01 to 100 nM | 
CC(OCC1(c2ccc(F)cc2)CCN(C)CC1)c1cc(C(F)(F)F)cc(N2CCCC2)n1 (centres unmarked) [Example 86] | 0.01 to 100 nM | 0.01 to 100 nM | 
CC(OCC1(c2ccc(F)cc2)CCN(C)CC1)c1cc(C(F)(F)F)cc(N2CC[C@@H](F)C2)n1 (some centres unmarked) [Example 87] |  | 0.01 to 100 nM | 0.01 to 100 nM
CN1CCC(COCc2cc(C(F)(F)F)cc(N3CCC(N4CCCC4)CC3)n2)(c2ccccc2)CC1 [Example 88] |  | > 300 nM | 0.01 to 100 nM
CN1CCC(COCc2cc(C(F)(F)F)cc(N3CCC(F)(F)C3)n2)(c2ccc(F)cc2)CC1 [Example 89] | 0.01 to 100 nM | 0.01 to 100 nM | 
CC1CCCN1c1cc(C(F)(F)F)cc(COCC2(c3ccc(F)cc3)CCN(C)CC2)n1 (centres unmarked) [Example 90] | 0.01 to 100 nM | 0.01 to 100 nM | 
CN1CCC(COCc2cc(C(F)(F)F)cc(N3CC[C@H](F)C3)n2)(c2ccc(F)cc2)CC1 [Example 91] | 0.01 to 100 nM | 0.01 to 100 nM | 
CN1CCC(COCc2cc(C(F)(F)F)cc(N3CC[C@@H](F)C3)n2)(c2ccc(F)cc2)CC1 [Example 92] | 0.01 to 100 nM | 0.01 to 100 nM | 
C[C@H]1CCCN1c1cc(C(F)(F)F)cc(COCC2(c3ccc(F)cc3)CCN(C)CC2)n1 [Example 93] | 0.01 to 100 nM | 0.01 to 100 nM | 
C[C@@H]1CCCN1c1cc(C(F)(F)F)cc(COCC2(c3ccc(F)cc3)CCN(C)CC2)n1 [Example 94] | 0.01 to 100 nM | 0.01 to 100 nM | 
CC(OCC1(c2ccc(F)cc2)CCN(C)CC1)c1cc(C(F)(F)F)cc(N2CCC[C@@H]2C)n1 (some centres unmarked) [Example 95] | 0.01 to 100 nM | 0.01 to 100 nM | 
CC(OCC1(c2ccc(F)cc2)CCN(C)CC1)c1cc(C(F)(F)F)cc(-c2ccc(C#N)cc2)n1 (centres unmarked) [Example 96] | 0.01 to 100 nM | 0.01 to 100 nM | 
Cc1cc(-c2cc(C(F)(F)F)cc(C(C)OCC3(c4ccc(F)cc4)CCN(C)CC3)n2)ccc1C#N (centres unmarked) [Example 97] | 100 to 300 nM | 0.01 to 100 nM | 
CN1CCC(COCc2cc(C(F)(F)F)cc(-c3ccc(C#N)cc3)n2)(c2cccnc2)CC1 [Example 98] | 0.01 to 100 nM | 0.01 to 100 nM | 
